Test results as given in ChEMBL document CHEMBL5550154, “Novel biaryloxazolidinone derivatives with broad-spectrum antibacterial activity, favorable drug-like profiles and in vivo efficacy against linezolid-resistant Staphylococcusaureus” (Eur J Med Chem, 2024).
Values after ≈ are worked out from the molar mass of the structure shown. Active and inactive are the calls of the source. The calls are words filed in the database; no cut-off is given here.

Legend:
Staphylococcus aureus [1] = test: Antibacterial activity against Linezolid-resistant Staphylococcus aureus infected in systemic infection SPF-kunming mouse model assessed as survival rate at 2.5 mg/kg, IG measured every day for 7 days; format: functional; conditions: po, 168 h, time 7 day
[2] = molecular target: T1, Amine oxidase [flavin-containing] B (Homo sapiens, UniProt P27338); test: Inhibition of MAO-B (unknown origin) preincubated with compound for 15 mins followed by substrate addition and measured after 60 mins by luminescence based microplate reader analysis; format: toxicity
T1 sequence (P27338 whole entry): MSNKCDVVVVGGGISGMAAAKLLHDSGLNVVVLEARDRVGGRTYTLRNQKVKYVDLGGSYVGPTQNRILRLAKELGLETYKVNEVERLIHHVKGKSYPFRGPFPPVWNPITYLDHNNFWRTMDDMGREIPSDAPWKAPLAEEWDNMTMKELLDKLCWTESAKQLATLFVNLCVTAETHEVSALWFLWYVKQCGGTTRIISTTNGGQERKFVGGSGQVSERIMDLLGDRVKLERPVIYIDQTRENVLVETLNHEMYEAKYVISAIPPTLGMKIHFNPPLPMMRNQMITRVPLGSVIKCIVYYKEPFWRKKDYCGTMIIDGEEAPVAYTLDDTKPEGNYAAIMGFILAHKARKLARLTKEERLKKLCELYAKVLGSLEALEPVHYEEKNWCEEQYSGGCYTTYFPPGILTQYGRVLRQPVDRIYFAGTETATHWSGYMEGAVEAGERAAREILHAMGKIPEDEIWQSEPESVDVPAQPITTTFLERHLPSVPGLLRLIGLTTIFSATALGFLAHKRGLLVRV

Staphylococcus aureus [3] = test: Antibacterial activity against Linezolid-resistant Staphylococcus aureus infected in systemic infection SPF-kunming mouse model assessed as survival rate at 10 mg/kg, IG measured every day for 7 days; format: functional, organism-based; conditions: time 7.0 day
Staphylococcus aureus [4] = test: Antibacterial activity against Linezolid-resistant Staphylococcus aureus infected in systemic infection IG dosed SPF-kunming mouse model assessed as survival rate measured every day for 7 days; format: functional, organism-based; conditions: dose 2.5-40 mg/kg, time 7.0 day
Staphylococcus aureus [5] = test: Antibacterial activity against vancomycin-resistant Staphylococcus aureus assessed as inhibition of bacterial growth; format: functional
Staphylococcus aureus [6] = test: Antibacterial activity against methicillin-sensitive Staphylococcus aureus assessed as inhibition of bacterial growth; format: functional
Staphylococcus aureus [7] = test: Antibacterial activity against methicillin-resistant Staphylococcus aureus assessed as inhibition of bacterial growth; format: functional
Staphylococcus aureus [8] = test: Antibacterial activity against Linezolid-resistant Staphylococcus aureus infected in systemic infection SPF-kunming mouse model assessed as survival rate at 10 to 40 mg/kg, IG measured 3 days after infection; format: functional, organism-based; conditions: dose 10-40 mg/kg
[9] = Stability in simulated gastric acid assessed as compound remaining at pH 1.3 measured at 1 hr; format: ADME; conditions: read-out: Stability

O=C1O[C@@H](CO)CN1c1ccc(-c2ccc(/C=N/N3CCOCC3)nc2)c(F)c1
survival at 2.5 mg/kg (Staphylococcus aureus [1]): 0%
IC50 [2]: 34.8 µM
Activity (Staphylococcus aureus [3]): Active
Activity (Staphylococcus aureus [4]): Dose-Dependent Effect

CC(=O)NC[C@H]1CN(c2ccc(N3CCOCC3)c(F)c2)C(=O)O1 [LINEZOLID]
MIC (Staphylococcus aureus [5]): 1 µg/mL (≈ 2.96 µM)
MIC (Staphylococcus aureus [6]): 1 µg/mL (≈ 2.96 µM)
MIC (Staphylococcus aureus [7]): 1 µg/mL (≈ 2.96 µM)

O=C1O[C@@H](CO)CN1c1ccc(-c2ccc(/C=N/N3CCCCC3)nc2)c(F)c1
Activity (Staphylococcus aureus [8]): inactive

CC(C)N/N=C/c1ccc(-c2ccc(N3C[C@H](CO)OC3=O)cc2F)cn1
remaining at 1 h [9]: 94.3%
